According to patent US11980609B2, “LPA receptor antagonists and uses thereof” (Gilead Sciences, Inc., priority 2021, dated 2024):

Biological target: T1, human LPAR1 (Homo sapiens, UniProt Q92633)
T1 construct: host or cells: CHO-K1
Assay: LPAR1 intracellular calcium mobilization assay (antagonist mode)
Format: cell-based
Conditions: CHO-K1 EDG2 cells expressing human LPAR1; 60 min pre-incubation with compound (0.5 nM to 10 μM), then LPA 18:2 challenge; FLIPR Tetra calcium signal
Protocol: In vitro LPAR1 activity was measured in an intracellular calcium mobilization assay.
CHO-K1 EDG2 cells (DiscoverX cat #93-0644C2) expressing human LPAR1 (NM_001401.3) were seeded in a total volume of 25 μL of Dulbecco's Modification of Eagle's Medium (DMEM) with 10% Fetal Bovine Serum, 1× PenStrepGlutamine, 300 μg/ml Hygromycin, and 800 μg/ml G418 into 384-well tissue culture plate (Grenier #781091) at 15,000 cells/well and incubated at 37° C. overnight. Prior to testing, 25 μL Calcium Loading Dye Component A (FLIPR Calcium 6 Assay Kit Molecular Device #R8190) and 2.5 mM Probenecid (Invitrogen #P36400, prepared fresh) in Hank's Balanced Salt Solution (Corning #21-023-CV), 20 mM HEPES (Corning #25-060-CI), 0.1% Bovine Serum Albumin (Sigma-Aldrich #A7906-500G) was add to the cells for 60 minutes at 37° C.
Agonist dose curves of LPA 18:2 (Avanti Polar Lipids cat #857138, 0.5 nM to 10 μM) were recorded to determine the LPA 18:2 EC80 for subsequent antagonist assays. For agonist dose curves, cells were removed from the incubator 2 hours after dye loading and transferred to the FLIPR Tetra instrument (Molecular Devices, San Jose, CA). Calcium mobilization was monitored for 5 min and 10 μL 6×LPA in HBSS/20 mM Hepes/0.1% bovine serum albumin (BSA) was added to the cells 5 seconds into the assay.
To determine the LPAR1 antagonist activity of test compounds, cells were pre-incubated with test compound at a dose range of 0.5 nM to 10 μM, followed by LPA at […] concentration (100 nM). After dye loading, cells were removed from the incubator and 0.3 μL of 200× antagonist was added. Cells were incubated for 60 minutes at 37° C. Antagonist activity was measured on a FLIPR Tetra. Calcium mobilization was monitored for 3.5 minutes and 10 μL 6×EC80 LPA in HBSS, 20 mM HEPES, and 0.1% BSA was added to the cells 5 seconds into the assay. Signal amplitude (Maximum minus minimum) values were plotted against log10 of antagonist concentration using Dose Response Tool (Gilead Sciences Inc.) to determine EC50.
To assess the antagonistic potential of exemplified compounds EC50 values were determined for Compounds 1 to 55 in the LPAR1 calcium mobilization assay. The compound numbers correspond to the compound numbers in Examples 1 to 35. N/A=not available.

T1 sequence (Q92633 whole entry): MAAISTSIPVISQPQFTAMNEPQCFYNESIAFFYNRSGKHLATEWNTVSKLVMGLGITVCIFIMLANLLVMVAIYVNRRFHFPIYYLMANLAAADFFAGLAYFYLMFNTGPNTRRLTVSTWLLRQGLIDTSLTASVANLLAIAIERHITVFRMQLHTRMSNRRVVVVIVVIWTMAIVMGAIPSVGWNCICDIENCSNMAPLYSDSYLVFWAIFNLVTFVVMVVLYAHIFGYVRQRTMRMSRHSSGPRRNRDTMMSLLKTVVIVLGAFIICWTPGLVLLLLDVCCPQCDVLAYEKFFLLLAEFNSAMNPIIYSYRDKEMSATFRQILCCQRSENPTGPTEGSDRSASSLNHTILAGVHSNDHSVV

Row | SMILES | EC50
1 | C[C@@H](OC(=O)Nc1c(-c2ncc(C(=O)NC34CC(F)(C3)C4)cn2)cnn1C)c1cc(F)cnc1F [Compound 47, (R)-1-(2,5-difluoropyridin-3-yl)ethyl (4-(5-((3-fluorobicyclo[1.1.1]pentan-1-yl)carbamoyl)pyrimidin-2-yl)-1-methyl-1H-pyrazol-5-yl)carbamate] | 799 nM
2 | C[C@@H](OC(=O)Nc1c(-c2ccc(C(=O)NC34CC(C#N)(C3)C4)cn2)cnn1C)c1cccc(F)c1 [Compound 49] | 1860 nM
3 | C[C@@H](OC(=O)Nc1c(-c2ccc(C(=O)NC34CC(F)(C3)C4)cn2)cnn1C)c1cccnc1Cl [Compound 50] | 869 nM
4 | C[C@@H](OC(=O)Nc1c(-c2ncc(NS(C)(=O)=O)cn2)cnn1C)c1ccccc1F [Compound 51, (R)-1-(2-fluorophenyl)ethyl (1-methyl-4-(5-(methylsulfonamido)pyrimidin-2-yl)-1H-pyrazol-5-yl)carbamate] | 36.4 nM
5 | C[C@@H](OC(=O)Nc1c(-c2ncc(C(O)C(F)(F)F)cn2)cnn1C)c1cc(F)cnc1F (stereo partly drawn) [Compound 53, (R)-1-(2,5-difluoropyridin-3-yl)ethyl (1-methyl-4-(5-(2,2,2-trifluoro-1-hydroxyethyl)pyrimidin-2-yl)-1H-pyrazol-5-yl)carbamate] | 745 nM
6 | C[C@@H](OC(=O)Nc1c(-c2ncc(C(F)F)cn2)cnn1C)c1cc(F)cnc1F [Compound 54, (R)-1-(2,5-difluoropyridin-3-yl)ethyl (4-(5-(difluoromethyl)pyrimidin-2-yl)-1-methyl-1H-pyrazol-5-yl)carbamate] | 2880 nM
7 | C[C@@H](OC(=O)Nc1c(-c2ncc(OC(F)F)cn2)cnn1C)c1cc(F)cnc1F [Compound 55, (R)-1-(2,5-difluoropyridin-3-yl)ethyl (4-(5-(difluoromethoxy)pyrimidin-2-yl)-1-methyl-1H-pyrazol-5-yl)carbamate] | 1780 nM
